From patent US20260115250A1, “METHODS OF TREATING AGE-RELATED MACULAR DEGENERATION” (Character Biosciences, Inc., priority 2022, published 2026)
Ends that are not written are not given here. Peptide text beside a SMILES is read from it.

What was measured:
LDLR [1] = target: T1, LDLR (Homo sapiens, UniProt P01130); test: lipid-dependent LDLR binding (SPR), single concentration; conditions: 1 μM peptide with or without 25 μM DMPC
Procedure: Peptides were diluted in 1×HBS-N buffer with 1 mM CaCl2 to a final concentration of 1 μM and incubated with or without 25 μM DMPC for 1 hour at RT to form lipid complexes. Each peptide was tested in duplicate. LDLR was diluted to 10 μg/mL in 10 mM acetate buffer pH 4.5 and was immobilized (˜400RU) on a CM5 chip via amine coupling utilizing 1×HBS-P+ buffer with 1 mM CaCl2. Test peptides (with or without DMPC) were exposed to immobilized LDLR at a flow rate of […] for 120 seconds in HBS-N with 1 mM CaCl2. Between cycles the surface was regenerated with 3, 30 second injections of 10 mM NaOH and 100 mM EDTA. Data are plotted as max RU values, averaged from three separate runs.

[2] = DMPC solubility assay, 0.5 mM DMPC (turbidity reduction); assay type: biochemical; conditions: FIGS. 2A-2D and 3A-3C
Procedure: In this example, peptide stocks were diluted to 200 μM in H2O (a 2× solution) and 50 μL of peptide solution was transferred in triplicate into 96-well plates. A one mM solution of 1,2-dimyristoyl-sn-glycero-3-phosphocholine (DMPC) in H2O was prepared, and using a multichannel pipet, 50 μL DMPC solution was rapidly added to the plate. Peptide and lipid solutions were incubated at room temperature for 15 minutes with a final concentration of 100 μM peptides and 0.5 mM DMPC. After 15 minutes, absorbance was read on a plate reader at 405 nm. […] Data are presented as mean+SD over two runs.
In these experiments, DMPC solubility titration curves were generated. Peptide stocks were diluted to 200 μM in H2O (a 2× solution) and serially diluted in H2O over 4 concentrations, then 50 μL of peptide solutions were distributed in triplicate into 96-well plates. A 1 mM solution of 1,2-dimyristoyl-sn-glycero-3-phosphocholine (DMPC) in H2O was prepared, and using a multichannel pipet, 50 μL DMPC solution was rapidly added to the plate. Peptide and lipid solutions were incubated at room temperature for 15 minutes with final concentrations of 3.16-100 μM peptides and 0.5 mM DMPC. After 15 minutes, absorbance was read on a plate reader at 405 nm. […] Data are presented as mean+SD over two runs. Non-linear regression was used to calculate EC50 values.

[3] = peptide binding to non-oxidized and oxidized lipids (SPR); conditions: immobilized peptide; RU normalized to DMPC
Procedure: FIGS. 25A-25O show peptide binding activity to non-oxidized and oxidized lipids via SPR for indicated peptides. Peptides were reconstituted to 50 μg/mL in 10 mM acetate buffer, pH 4.5 and immobilized to ˜200 RU on a CM5 chip via amine coupling. Non-oxidized lipids (DMPC & POPC) and oxidized lipids (POVPC & KOdiA-PC) were diluted to 100 µM in HBS-EP running buffer and exposed to the chip for binding (n=3) at a flow rate of […] for 120 seconds. The surface was regenerated with 20% EtOH. T-001 served as a positive control and T-031 served as a negative control on each chip. For each peptide, the RU response for all lipids was normalized to the DMPC RU values.

HepG2 cells = test: HepG2 GAG dependent cholesterol import (with or without heparin); assay type: cell-based; conditions: HepG2, 10 μM peptide, with or without 100 μg/mL heparin
Procedure: HepG2 cells were seeded on 96-well plates at 10,000 cells per well and grown to confluence. A 2× solution of 500 μM DMPC and 50 μM BODIPY-Cholesterol with or without 100 μg/mL heparin was prepared in serum free EMEM. Peptides were diluted to 20 μM in serum-free EMEM (a 2× solution). Peptides were added to lipid solution in equal parts (60 μL each) and incubated for 1 hour at 37° C. HepG2 cells were serum starved in serum-free EMEM for 1 hour at 37° C. Peptide: Lipid complexes (100 μL total volume per well) were transferred to HepG2 cells for 2 hours at 37° C. Cells were washed, fixed, and intracellular fluorescence was read on Promega GloMax at 475 nm excitation, 500-550 emission. Fluorescence values were background corrected from no treatment conditions. Data are presented ±SD for 2 runs.

C57BL/6J mice = test: tolerability testing in mice after intravitreal injection (H&E histopathology); assay type: in vivo, mouse; conditions: IVT, 520 μM, seven days
Text: Seven days following IVT injection, eyes were harvested and prepared for hematoxylin and eosin staining. A blinded veterinarian performed histopathological analysis of tissue slices to determine whether the peptides induced inflammation or retinal disruption.

LDLR [4] = target: T1, LDLR; test: LDLR binding (SPR), high surfactant preparation
Outline: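 Multi-cycle kinetics fitted 1:1: peptide flowed at 30 μL/sec for 120 seconds over immobilised LDLR (amine coupling, CM5, 1000 RU) in running buffer HBS-P+ plus 1 mM CaCl2. Five concentrations per peptide, 1:3 serial from 5 μM; surface regenerated between cycles with 50 mM NaOH/100 mM EDTA.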

ARPE-19 cells = test: ARPE-19 cell lysis (Sytox Green); assay type: cell-based, human; conditions: 10 μM peptide, 2 h
Procedure: These figures illustrate ARPE-19 cell lysis. ARPE-19 cells were grown in 96-well plates to 75-85% confluence. Peptides at 10 mM were diluted in serum-free DMEM:F12 media into a 20 μM working solution (a 2× solution). Sytox Green was prepared in serum-free DMEM:F12 at a 1 μM working solution (a 2× solution). Equivalent volumes of the peptide and Sytox Green solutions were added to empty 96-well plates and mixed gently. Final peptide concentration was 10 μM. ARPE-19 cells (˜80% confluent in 96-well plates) were washed with DPBS and then incubated in 100 μL of peptide/Sytox Green mixture for 2 h at 37° C. Cells were fixed in 4% paraformaldehyde solution in DPBS and then incubated in 10 μM Hoechst solution for 10 min, washed, and imaged on a Yokogawa CQ1 high-content imager. CellPathfinder software was used to count live/dead cells in 4 fields of view at 20× magnification. Percent (%) lysis was calculated by dividing the number of Sytox Green+ nuclei by the total number of Hoechst+ nuclei.
ARPE-19 cells were grown in 96-well plates to 75-85% confluence. Peptides at 10 mM were diluted in serum-free DMEM: F12 media to solutions between […]. Sytox Green was prepared in serum-free DMEM: F12 media at a 1 μM working solution. Equivalent volumes of the peptide and Sytox Green solutions were added to empty 96-well plates and mixed gently. Final peptide concentration was 3.16-100 μM. ARPE-19 cells (˜80% confluent in 96-well plates) were washed with DPBS and then incubated in 100 μL of peptide/Sytox Green mixture for 2 h at 37° C. Cells were fixed in 4% paraformaldehyde solution in DPBS and then incubated in 10 μM Hoechst solution for 10 min, washed, and imaged on a Yokogawa CQ1 high-content imager. CellPathfinder software was used to count live/dead cells in 4 fields of view at 20× magnification. Percent (%) lysis was calculated by dividing the number of Sytox Green+ nuclei by the total number of Hoechst+ nuclei. Non-linear regression was used to calculate EC50 values.

T1 sequence (P01130 22-860): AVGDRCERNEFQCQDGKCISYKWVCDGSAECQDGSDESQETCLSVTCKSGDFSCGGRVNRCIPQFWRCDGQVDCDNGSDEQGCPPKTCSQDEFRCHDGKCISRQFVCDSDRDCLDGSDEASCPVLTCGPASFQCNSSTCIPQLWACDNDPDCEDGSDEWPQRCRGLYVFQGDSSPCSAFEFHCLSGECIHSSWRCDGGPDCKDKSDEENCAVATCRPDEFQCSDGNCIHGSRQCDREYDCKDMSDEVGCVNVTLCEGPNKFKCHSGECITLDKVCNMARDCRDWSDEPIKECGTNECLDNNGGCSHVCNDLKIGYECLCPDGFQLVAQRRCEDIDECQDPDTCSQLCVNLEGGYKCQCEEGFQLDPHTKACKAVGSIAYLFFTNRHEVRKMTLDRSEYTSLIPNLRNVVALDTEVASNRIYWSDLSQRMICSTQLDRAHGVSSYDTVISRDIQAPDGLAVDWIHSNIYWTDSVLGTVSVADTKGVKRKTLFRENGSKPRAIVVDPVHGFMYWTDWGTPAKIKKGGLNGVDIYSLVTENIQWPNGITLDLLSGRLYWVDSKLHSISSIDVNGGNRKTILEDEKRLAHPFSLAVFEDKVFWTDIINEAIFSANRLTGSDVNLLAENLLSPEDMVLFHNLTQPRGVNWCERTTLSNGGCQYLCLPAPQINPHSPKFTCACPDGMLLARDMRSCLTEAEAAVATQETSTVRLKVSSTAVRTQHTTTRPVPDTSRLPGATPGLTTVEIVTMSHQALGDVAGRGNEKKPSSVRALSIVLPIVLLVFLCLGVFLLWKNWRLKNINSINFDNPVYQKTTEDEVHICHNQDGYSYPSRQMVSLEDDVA

lipid-dependent LDLR binding (RU with lipid vs peptide alone) (LDLR [1])	Compound	DMPC solubilizing activity [2]	in vivo tolerability (inflammation or retinal disruption) (C57BL/6J mice)	further results
lipid-dependent LDLR binding activity	T-029: therapeutic peptide (HLRKLRKRLLRDGDKLCDRLAEYCARAKEAFDR)	significant activity		binding to oxidized lipids relative to DMPC [3]: binding to at least one oxidized lipid that was equivalent or improved to binding against DMPC; GAG dependence of cholesterol import (HepG2 cells): rely on GAG binding for cholesterol import activity
	CC[C@H](C)[C@H](NC(=O)[C@H](Cc1ccccc1)NC(=O)[C@H](CCCNC(=N)N)NC(=O)[C@H](CCCCN)NC(=O)[C@H](CC(C)C)NC(=O)[C@H](CCC(=O)O)NC(=O)[C@H](CCCCN)NC(=O)[C@H](CC(C)C)NC(=O)[C@H](C)NC(=O)[C@H](CO)NC(=O)[C@H](CCC(=O)O)NC(=O)[C@H](CC(C)C)NC(=O)[C@H](C)NC(=O)[C@H](CC(=O)O)NC(=O)[C@H](C)NC(=O)CNC(=O)[C@H](CO)NC(=O)[C@@H](N)CCCNC(=N)N)C(=O)N[C@@H](CCCNC(=N)N)C(=O)N[C@@H](CCC(=O)O)C(=O)N[C@@H](Cc1c[nH]c2ccccc12)C(=O)N[C@H](C(=O)O)[C@@H](C)O [T-101] (H-RSGADALESALKELKRFIREWT-OH; N-terminus and C-terminus assumed)		well tolerated	
lipid-dependent LDLR binding activity	T-009: therapeutic peptide (EELRVRLASHLRKLRKRLLRDADDLQKRLAVYQAGAREGAERGLSAIRER)	significant activity		binding to oxidized lipids relative to DMPC [3]: binding to at least one oxidized lipid that was equivalent or improved to binding against DMPC
lipid-dependent LDLR binding activity	T-007: therapeutic peptide (EELRVRLASHLRKLRKRLLRDADDLQKRLAVYQA)	significant activity		
	LKDFGERVARALREQFEDLGQSTEELRVRLASHLRKLRKRLLRDADDLQKRLAVYQA [T-114]		well tolerated	Kd (LDLR [4]): < 10 µM
	CC[C@H](C)[C@H](NC(=O)CN)C(=O)N[C@@H](CCCCN)C(=O)N[C@@H](CCCCN)C(=O)N[C@@H](Cc1ccccc1)C(=O)N[C@@H](CC(C)C)C(=O)NCC(=O)N[C@@H](CO)C(=O)N[C@H](C(=O)N[C@@H](Cc1c[nH]c2ccccc12)C(=O)N[C@@H](CCCCN)C(=O)N[C@@H](Cc1ccccc1)C(=O)N[C@H](C(=O)N[C@@H](CCCCN)C(=O)N[C@@H](C)C(=O)N[C@@H](Cc1ccccc1)C(=O)N[C@H](C(=O)NCC(=O)O)C(C)C)[C@@H](C)CC)[C@@H](C)CC [T-034, reference compound] (H-GIKKFLGSIWKFIKAFVG-OH)			ARPE-19 cell lysis (ARPE-19 cells): induce cell lysis
	T-030: therapeutic peptide (EHLCELIERACRKLVELQEKLSKWLIAELGEGWRQWLHSLKEFLS)	significant activity		binding to oxidized lipids relative to DMPC [3]: binding to at least one oxidized lipid that was equivalent or improved to binding against DMPC
	YKDFGERVERALGRQLEMLGQSTEELRVRLASHLRKLRKRLLRDADDLQKRLAVYQA [T-112]		all peptides except T-112 were well tolerated	Kd (LDLR [4]): < 10 µM
	CC(C)C[C@H](NC(=O)[C@H](Cc1ccccc1)NC(=O)[C@H](CCC(=O)O)NC(=O)[C@H](CCC(=O)O)NC(=O)[C@H](CC(C)C)NC(=O)[C@H](CCC(N)=O)NC(=O)[C@H](CCCNC(=N)N)NC(=O)CNC(=O)[C@@H](NC(=O)[C@H](CC(C)C)NC(=O)[C@H](CCCNC(=N)N)NC(=O)[C@H](CC(C)C)NC(=O)[C@H](CC(C)C)NC(=O)[C@H](CCCNC(=N)N)NC(=O)[C@H](CCCCN)NC(=O)[C@H](CCCNC(=N)N)NC(=O)[C@H](CC(C)C)NC(=O)[C@H](CCCCN)NC(=O)[C@H](CCCNC(=N)N)NC(=O)[C@H](CC(C)C)NC(=O)[C@@H](N)Cc1c[nH]cn1)C(C)C)C(=O)O [T-028] (H-HLRKLRKRLLRLVGRQLEEFL-OH)			ARPE-19 cell lysis (ARPE-19 cells): induce cell lysis
	CC(C)C[C@H](NC(=O)[C@H](C)NC(=O)[C@H](CCCNC(=N)N)NC(=O)[C@H](Cc1ccccc1)NC(=O)[C@H](CCCNC(=N)N)NC(=O)[C@H](CCC(=O)O)NC(=O)[C@H](Cc1c[nH]c2ccccc12)NC(=O)[C@H](C)NC(=O)[C@@H](N)CC(=O)O)C(=O)N[C@@H](Cc1ccccc1)C(=O)N[C@@H](CCCCN)C(=O)N[C@@H](CCC(=O)O)C(=O)N[C@@H](CC(C)C)C(=O)N[C@@H](C)C(=O)N[C@@H](CC(=O)O)C(=O)N[C@@H](Cc1ccc(O)cc1)C(=O)N[C@@H](Cc1ccccc1)C(=O)N[C@@H](CCCNC(=N)N)C(=O)O [T-087] (H-DAWERFRALFKELADYFR-OH; N-terminus and C-terminus assumed)		well tolerated	
lipid-dependent LDLR binding activity	T-018: therapeutic peptide (HLRKLRKRLLRPPEQAQQIRLQAEAFQARLKSWFE)	significant activity		
